# Reference: patent publication US12209060B2, “Ketamine derivatives and compositions thereof” (XWPHARMA LTD., priority 2018, dated 2025)
# Like-named read-outs stand apart in the source and are kept apart here.
# Legend:
# [1] = cited from earlier work; for Cmax / Tmax / oral bioavailability: humans, orally administered 50 mg tablet, Yanagihara et al. 2003
# [2] = In vivo Monkey PK studies; conditions: for AUC(0-∞) / Cmax: S-ketamine in blood
# Description: The de-proteinized samples were temporarily held in ice following by storing at −70° C. before bioanalysis.
# (§1) Bio-Analysis: Samples were monitored for parent compound disappearance and ketamine formation in multi-reaction monitoring (MRM) mode by LC-MS/MS system. The mobile phase was performed at a constant flow rate of 0.8 mL/min using a binary solvent system: Solvent A, de-ionized water containing 0.10% formic acid, and Solvent B, methanol containing 0.10% formic acid. MRM data were acquired, and the chromatograms were integrated using Quant Wizard of the version 1.5.2 software (Analyst Software from ABI). A weighted (1/x or 1/x^2) linear regression was used to generate the calibration curve from standards and to calculate the sample concentrations.
# (§2) Pharmacokinetic Data Analysis: The pharmacokinetic parameters were estimated for each subject using the Phoenix™ WinNonlin program, version 6.3 (Phoenix WinNonlin© 2012, Pharsight Corporation, Mountain View, CA). Non-compartmental analysis was performed to generate parameter estimates. The terminal elimination rate constant (λ) was obtained, where possible, by linear regression of the terminal elimination phase of a log-linear plot of the blood concentration-time data. The criteria for λ acceptance were regression of at least three time points from the terminal elimination phase and r^2≥0.85. Half-life was defined as not determined (ND) if the criteria could not be met. Nominal time was used for t1/2 and AUC calculations. The apparent blood terminal elimination half-life (t1/2) was calculated according to the following formula: t1/2=ln(2)/λ. The observed maximum blood concentration (Cmax) and the time to reach the maximum blood concentration (Tmax) were obtained by visual inspection of the experimental data. The area under the blood concentration-time curve of ketamine from time 0 to the last measurable concentration (AUC(0-Last)) was determined by the linear trapezoidal method. The area under the blood concentration-time curve from time 0 to infinity (AUC(0-∞)) was determined by AUC(0-Last)+CLast/λ, in which CLast was the concentration corresponding to the time point of last measurable concentration (TLast).
# [3] = Whole blood stability (ketamine formation), rat; format: in vitro ADME; conditions: 3 μM, 37° C., up to 60 min, ketamine formed, S-ketamine = 100
# Description: Whole Blood Stability Assay: Test compounds were incubated in 37° C. pre-warmed rat whole blood at 3 μM (final acetonitrile concentration 1%) for up to 60 min at 37° C. One-hundred 100 μL aliquots of spiked sample solutions were taken at pre-defined time points (0 to 60 min) post incubation, and were immediately extracted by adding 5 volumes of extraction solvent and then centrifuged at 20,000×g for 5 min. The supernatant fractions were analyzed with LC-MS/MS for the amount of the test compound remaining and ketamine.
# [4] = In vivo Dog PK Studies; conditions: for AUC(0-last) / Cmax: S-ketamine in blood
# Description: In vivo Dog PK Studies: Three male Beagle dogs were housed individually. Dogs in the oral administration groups were fasted overnight before treatment but with free access to water. Dogs in the IV groups had free access to food and water. For S-ketamine HCl salt, a single dose of […] was administered to each dog via intravenous (IV) administration. The vehicle used for S-ketamine HCl salt was saline. For other test compounds, a single dose of each test compound was administered to each dog via oral gavage (n=3/group). The vehicles used for dosing the test compounds were dependent on the properties of the test compound. Blood samples were collected at specified time-points (pre-dose, 10 min, 30 min, 1 h, 2 h, 3 h, 4 h, 5 h, 6 h, 8 h, post-dose) following administration to individual dogs within IV and PO group. To prevent compound degradation, drawn blood samples were immediately mixed in a ratio of 1:3 (v/v) with acetonitrile (containing 0.1% formic acid). The de-proteinized samples were temporarily held in ice following by storing at −70° C. before bioanalysis. The concentrations of analytes in the blood were determined by LC-MS/MS. Various pharmacokinetic parameters were calculated using Phoenix™ WinNonlin® software. To quantify the bioconversion efficiency of the test compounds in the circulation system, the bioavailability of S-ketamine after PO administration was calculated.
# as §1, §2
# [5] = Whole blood stability (ketamine formation), monkey; format: in vitro ADME; conditions: ketamine formed, S-ketamine = 100
# [6] = In vivo Rat PK Studies; parameters: species or system rats; conditions: oral; bioavailability with respect to S-ketamine; oral dose level 5 μmol/kg to 160 μmol/kg
# Description: (§3) In vivo Mouse/Rat PK Studies: Pharmacokinetic profiles of the test compounds were evaluated in mice and rats […] (S-ketamine or prodrugs) administration. The oral dose level was 5 μmol/kg to 160 μmol/kg administered at a volume of 10 mL/kg. Blood samples were collected from the facial veins using heparinated tubes at pre-dose and 0.05, 0.17, 0.5, 1, 2, 3, 4, 6, and 8 hours post-dose following intravenous administration, and withdrawn at pre-dose and 0.17, 0.5, 1, 2, 3, 4, 5, 6, and 8 hours post-dose following oral administration. In each mouse PK study, mice were sub-grouped for a sparse sampling strategy. Each mouse provided two blood samples at different collection times. Blood samples were collected from alternating groups of three mice per time point.
# (§4) Non-compartmental analysis was performed to generate parameter estimates.
# [7] = Whole blood stability (ketamine formation), human; format: in vitro ADME; conditions: ketamine formed, S-ketamine = 100
# [8] = In vivo Mouse PK Studies; parameters: species or system mice; conditions: oral; bioavailability with respect to S-ketamine; oral dose level 5 μmol/kg to 160 μmol/kg
# Description: as §3, §4
# [9] = Whole blood stability (ketamine formation), mouse; format: in vitro ADME; conditions: ketamine formed, S-ketamine = 100
# [10] = Whole blood stability (ketamine formation), dog; format: in vitro ADME; conditions: ketamine formed, S-ketamine = 100
# [11] = oral, bioavailability with respect to S-ketamine (Table 5 summary)
smiles,measurement,setting,value
CN[C@@]1(c2ccccc2Cl)CCCCC1=O [(R)-ketamine],Cmax,[1],about 41 ng/mL
same,Tmax,[1],about 31 min
same,oral bioavailability,[1],about 18%
"CNC1(c2ccccc2Cl)CCCCC1=O (centres unmarked) [Ketamine, 2-(2-chiorophenyl)-2-(methylamino)cyclohexan-1-one]",oral bioavailability in humans (% F),[1],about 20%
CN[C@]1(c2ccccc2Cl)CCCCC1=O [S-ketamine],AUC(0-∞),"[2]; monkeys, IV @5 μmol/kg",2.325 µM·h
same,Cmax,"[2]; monkeys, IV @5 μmol/kg",1200 nM
same,AUC(0-∞),"[2]; monkeys, PO @10 μmol/kg",0.034 µM·h
same,Cmax,"[2]; monkeys, PO @10 μmol/kg",13 nM
same,F,"[2]; monkeys, PO @10 μmol/kg, bioavailability of S-ketamine",0.7%
same,Monkey F,[2]; [11],0.7%
same,Rat Ket (%),[3],100%
same,AUC(0-last),"[4]; dogs, IV @3.75 μmol/kg",0.244 µM·h
same,Cmax,"[4]; dogs, IV @3.75 μmol/kg",669 nM
same,AUC(0-last),"[4]; dogs, PO 15 μmol/kg",0.017 µM·h
same,Cmax,"[4]; dogs, PO 15 μmol/kg",9 nM
same,F,"[4]; dogs, PO 15 μmol/kg, bioavailability of S-ketamine",1.8%
same,Dog F,[4]; [11],1.8%
same,Monkey Ket (%),[5],100%
same,Rat F,[6],4.9%
same,Human Ket (%),[7],100%
same,Mouse F,[8],5.6%
same,Mouse Ket (%),[9],100%
same,Dog Ket (%),[10],100%
same,Cmax,[1],about 41 ng/mL
same,Tmax,[1],about 31 min
same,oral bioavailability,[1],about 18%
